Structures are written as SMILES. Where two headings read alike, the source gives them in different places. *1 amine or outer side, *2 acyl side, *3 side chain or, on linkers, in order; H or OH if unused. Where a SMILES comes first, the peptide text is derived from it. Bridges are numbered along the chain shown (N, C = ends). Roman numbers before positions name the chains, in order. [ ]: non-standard residue; d: D form. Actinocin(9to1) = Cc1c2oc3c(C)ccc(C(=O)[*:1])c3nc-2c(C(=O)[*:2])c(N)c1=O; NMeV = CN[C@H](C(=O)O)C(C)C; Sar = CNCC(=O)O

Here are results for four molecules from PMC10830635, “In vitro cytotoxicity of Withania somnifera (L.) roots and fruits on oral squamous cell carcinoma cell lines: a study supported by flow cytometry, spectral, and computational investigations” (Frontiers in Pharmacology, 2024).

Data set [1] deals with Ca9-22 (human gingival squamous carcinoma cell line). In words: MTT cytotoxicity assay, Ca9-22. The following applies: for CC50: Homo sapiens, Ca9-22, 48 h, read-out: CC50 Ca9-22 (A).
Experimental: (§1) The cancer cell lines (HSC-2, HSC-3, HSC-4), as well as the normal cells (HGF, HPLF, and HPC), were cultured at 37°C in a humidified 5% CO2 incubator in DMEM medium enriched with streptomycin sulphate (100 μg/mL), 10% heat-inactivated FBS, and penicillin G (100 units/mL). For cytotoxicity testing, cells were then garnered using 0.25% trypsin–0.025% sodium edetate in a phosphate-buffered saline lacking Ca^2+/Mg^2+ [PBS (−)]. The cells were cultured in 96-well microplates at a cell count of 3 ×10^3 cells/100 μL. After 2 days, the exhausted medium was replaced with fresh medium containing the different concentrations of sample to be tested, in triplicate. The initial sample concentration was set at 5 mg/mL in DMSO. The first concentration examined was thus 500 μg/mL, which was then successively diluted 2-fold. In the wells assigned for control, equal volumes of the DMSO were added to the cells, where the toxic effects of DMSO could be subtracted. The cell growth in the incubator was continued for another 2 days. […] The concentration of cytotoxicity 50% (CC50) was determined from the dose-response curve. […] The changes in cell morphology were detected using light microscopy (EVOSfl; ThermoFisher Scientific, Waltham, MA, United States).
(§2) The following equation was used to calculate tumor specificity (TS): TS = average CC50 toward the normal cells (HGF + HPLF + HPC)/average CC50 toward the tumor cell lines (Ca9-22 + HSC-2 + HSC-3 + HSC-4), as indicated by D/B (Table 1). To compare the sensitivity of the cancer cells (Ca9-22) with that of the normal cells (HGF), being generated from the same tissue, the equation TS = CC50 against HGF/CC50 against Ca9-22 was used (see C/A in Table 1).
In data set [2] the test system is HSC-4 (human squamous carcinoma, derived from tongue). The data set can be described thus: MTT cytotoxicity assay, HSC-4. In kind it is cell-based. Particulars: HSC-4, 48 h, read-out: CC50 HSC-4. (In general: Tetrazolium assays rely on reduction of a dye to a coloured formazan, in cell work by metabolically active cells.)
Experimental: (§3) The cancer cell lines (HSC-2, HSC-3, HSC-4), as well as the normal cells (HGF, HPLF, and HPC), were cultured at 37°C in a humidified 5% CO2 incubator in DMEM medium enriched with streptomycin sulphate (100 μg/mL), 10% heat-inactivated FBS, and penicillin G (100 units/mL). For cytotoxicity testing, cells were then garnered using 0.25% trypsin–0.025% sodium edetate in a phosphate-buffered saline lacking Ca^2+/Mg^2+ [PBS (−)]. The cells were cultured in 96-well microplates at a cell count of 3 ×10^3 cells/100 μL. After 2 days, the exhausted medium was replaced with fresh medium containing the different concentrations of sample to be tested, in triplicate. The initial sample concentration was set at 5 mg/mL in DMSO. The first concentration examined was thus 500 μg/mL, which was then successively diluted 2-fold. In the wells assigned for control, equal volumes of the DMSO were added to the cells, where the toxic effects of DMSO could be subtracted. The cell growth in the incubator was continued for another 2 days. To determine the cell viability, the colorimetric MTT method was employed as described in our preceding article ([Orabi et al., 2021]). The concentration of cytotoxicity 50% (CC50) was determined from the dose-response curve. The mean CC50 value for each type of cell was calculated from triplicate assays ([Kantoh et al., 2010]).
The nature of data set [3]: MTT cytotoxicity assay, normal oral cells together (mean). In kind it is cell-based. Particulars: human; mean of HGF, HPLF, HPC; read-out: CC50 Mean (D), human normal oral cells.
Experimental: The cancer cell lines (HSC-2, HSC-3, HSC-4), as well as the normal cells (HGF, HPLF, and HPC), were cultured at 37°C in a humidified 5% CO2 incubator in DMEM medium enriched with streptomycin sulphate (100 μg/mL), 10% heat-inactivated FBS, and penicillin G (100 units/mL). For cytotoxicity testing, cells were then garnered using 0.25% trypsin–0.025% sodium edetate in a phosphate-buffered saline lacking Ca^2+/Mg^2+ [PBS (−)]. The cells were cultured in 96-well microplates at a cell count of 3 ×10^3 cells/100 μL. After 2 days, the exhausted medium was replaced with fresh medium containing the different concentrations of sample to be tested, in triplicate. The initial sample concentration was set at 5 mg/mL in DMSO. The first concentration examined was thus 500 μg/mL, which was then successively diluted 2-fold. In the wells assigned for control, equal volumes of the DMSO were added to the cells, where the toxic effects of DMSO could be subtracted. The cell growth in the incubator was continued for another 2 days. […] The concentration of cytotoxicity 50% (CC50) was determined from the dose-response curve.
Data set [4] in a line: MTT cytotoxicity assay, HGF. It is filed as cell-based. Particulars: human, normal gingival fibroblasts (HGF), normal cells, 2 days exposure.
Experimental: as §3
The test system of data set [5] is OSCC cell lines (Ca9-22 + HSC-2 + HSC-3 + HSC-4). In words: MTT cytotoxicity assay, OSCC cell lines together (mean, TS, PSE). Particulars: for CC50: Homo sapiens, read-out: CC50 Mean (B), human oral squamous cell carcinoma cell lines; for Type of growth inhibition (cytotoxic or cytostatic) from dose-response curve: OSCC cell lines and normal oral cells, Figure 1.
Experimental: as §1, §2
The test system of data set [6] is HSC-2 (human squamous carcinoma, derived from tongue). The data set can be described thus: MTT cytotoxicity assay, HSC-2. Particulars: HSC-2, 48 h, read-out: CC50 HSC-2. In kind it is cell-based.
Experimental: as §3
A short description of data set [7]: MTT cytotoxicity assay, HPLF. In kind it is cell-based. Particulars: human, normal periodontal ligament fibroblasts (HPLF), normal cells, 2 days exposure.
Experimental: as §3
The subject of data set [8] is HSC-3 (human squamous carcinoma, derived from tongue). In words: MTT cytotoxicity assay, HSC-3. It is filed as cell-based. The following applies: HSC-3, 48 h, read-out: CC50 HSC-3.
Experimental: as §3
Data set [9] is described as follows: MTT cytotoxicity assay, HPC. In kind it is cell-based. The following applies: human, normal pulp cells (HPC), 2 days exposure.
Experimental: For cytotoxicity testing, cells were then garnered using 0.25% trypsin–0.025% sodium edetate in a phosphate-buffered saline lacking Ca^2+/Mg^2+ [PBS (−)]. The cells were cultured in 96-well microplates at a cell count of 3 ×10^3 cells/100 μL. After 2 days, the exhausted medium was replaced with fresh medium containing the different concentrations of sample to be tested, in triplicate. The initial sample concentration was set at 5 mg/mL in DMSO. The first concentration examined was thus 500 μg/mL, which was then successively diluted 2-fold. In the wells assigned for control, equal volumes of the DMSO were added to the cells, where the toxic effects of DMSO could be subtracted. The cell growth in the incubator was continued for another 2 days. To determine the cell viability, the colorimetric MTT method was employed as described in our preceding article ([Orabi et al., 2021]). The concentration of cytotoxicity 50% (CC50) was determined from the dose-response curve. The mean CC50 value for each type of cell was calculated from triplicate assays ([Kantoh et al., 2010]). The changes in cell morphology were detected using light microscopy (EVOSfl; ThermoFisher Scientific, Waltham, MA, United States).
The test system of data set [10] is Ca9-22 cells. The data set can be described thus: Cell cycle analysis (PI staining, cell sorter) and cell morphology. In kind it is cell-based, human. Particulars: Ca9-22, 20 h, 1 µM.
Experimental: The changes in cell morphology were detected using light microscopy (EVOSfl; ThermoFisher Scientific, Waltham, MA, United States).
Ca9-22 cells (3 × 10^4/mL, 10 mL) were added to a 10-cm dish and allowed to fully attach to the dish over the course of 48 h of incubation. […] These cells were mixed and then washed once with PBS (−). Both cell groups were fixed for 1 h on ice with 1% paraformaldehyde. Fixed cells were then washed twice with PBS (−) and treated with 400 μL of 200 μg/mL RNase A (which was preheated for 10 min at 100°C to inactivate DNase) to degrade RNA. The cells were then washed twice with PBS (−) and stained for 15 min with 0.01% propidium iodide (PI) in the presence of 0.01% NP-40 in PBS (−) to prevent cell aggregation. After filtering through Falcon® cell strainers (nylon mesh, pore size: 40 μm) (Corning, NY, United States) to remove aggregated cells, PI-stained cells were then subjected to cell sorting using (SH800 Series; SONY Imaging Products and Solutions Inc., Kanagawa, Japan), and finally analyzed with the Cell Sorter Software version 2.1.2.

The CC50 is the concentration giving 50% cytotoxicity. As to `O=c1[nH]cc(F)c(=O)[nH]1` [5-FU, 5-fluorouracil], the cytotoxic concentration (CC50) in data set [1] is 69.4 µM; in data set [2] (MTT, 2 days exposure), 182 µM; in data set [5] it was above 386 µM; in data set [6] (MTT, 2 days exposure) it was 292 µM; in [8] (MTT, 2 days exposure), above 1000 µM. In addition, the CC50 at 2 days in data set [3], in data set [4], in [7] and in data set [9] was above 1000 µM each time. In addition, the “Type of growth inhibition (cytotoxic or cytostatic) from dose-response curve” value (“Type of growth inhibition” below) in [5] is listed as “Cytostatic”.

As for `Cc1c2oc3c(C)ccc(C(=O)N[C@@H]4C(=O)N[C@H](C(C)C)C(=O)N5CCC[C@H]5C(=O)N(C)CC(=O)N(C)[C@@H](C(C)C)C(=O)O[C@@H]4C)c3nc-2c(C(=O)N[C@@H]2C(=O)N[C@H](C(C)C)C(=O)N3CCC[C@H]3C(=O)N(C)CC(=O)N(C)[C@@H](C(C)C)C(=O)O[C@@H]2C)c(N)c1=O` [Act.D, actinomycin D] (I: T[dV]P[Sar][NMeV] / II: T[dV]P[Sar][NMeV]; ester I:1-I:C, II:1-II:C; linker I:N-II:N via Actinocin(9to1)), the “Morphological change of cells” value in data set [10] is “cell shrinkage”.

Take `N[C@@H](Cc1ccc(N(CCCl)CCCl)cc1)C(=O)O` [Melphalan, melphalan]: the “TS (tumor selectivity) C/A” value in data set [1] (CC50 HGF / CC50 Ca9-22) came to 5.0. Further, the 50% cytotoxic concentration (CC50) in [1] worked out at 36.3 µM; in [2] it was 9.9 µM; in [5], 17.8 µM; in data set [6], 11 µM; in [8], 14.1 µM. In addition, the CC50 at 2 days was above 180 µM in data set [3], 180 µM in data set [4], above 200 µM in data set [7] and 159 µM in [9]. In addition, the “Type of growth inhibition” value in [5] is given as “Cytotoxic”.

`COc1cccc2c1C(=O)c1c(O)c3c(c(O)c1C2=O)C[C@@](O)(C(=O)CO)C[C@@H]3O[C@H]1C[C@H](N)[C@H](O)[C@H](C)O1` [Doxorubicin, doxorubicin]: the CC50 in [1] was 0.18 µM; in [2] (MTT, 2 days exposure), below 0.078 µM; in data set [5], below 0.13 µM; in data set [6] (MTT, 2 days exposure) it was 0.09 µM; in data set [8] (MTT, 2 days exposure), 0.16 µM. Further, the 50% cytotoxic concentration (CC50) at 2 days in data set [3], in data set [4], in [7] and in data set [9] was above 10 µM each time. Also, the “Type of growth inhibition” value in data set [5] is “Cytotoxic”.
